The results in this text go back to US12428395B2, “Heterocyclic compounds as kinase inhibitor and uses thereof” (SPEROGENIX THERAPEUTICS LIMITED, priority 2019, dated 2025).

Assay [1] concerns MiaPaCa-2. Nature of the assay: Cell viability assay (resazurin), MiaPaCa-2. The assay is classed as cell-based. The note with it: Homo sapiens, MIA PaCa-2; MiaPaCa-2 pancreatic cancer cells. As to the method: (§1) Protocol for Cell Viability Assay in Different Cell Lines for CHK-1 Inhibitors:
(§2) Cells were allowed to grow at 37° C. for 24 hr (adherent cells) in 5% CO2 (culture conditions) in a Nuaire incubator (humidified). Following 24 hr (adherent cells), serially diluted compounds (100 μl) were added to the culture plate (immediately after plating in case of suspension cells) and the cultures were further incubated in culture conditions for 72-144 hr depending on the cell type. Experiment was terminated at the completion of respective incubation with drug by replacing the medium with 100 μl of 1 mM of resazurin (R7017; Sigma) prepared in culture medium and the plates were further incubated in culture conditions for 4 hr. In case of 144 hr incubation with the drug, the drug was replenished once with fresh medium after 72 hr. Fluorescence was then measured using a multimodal plate reader (Biotek Synergy Neo) at an excitation wavelength of 535 nm and emission wavelength of 590 nm to obtain relative fluorescence units. Data analysis was done by subtracting the background fluorescence (only medium blank) value from each reading and then normalizing with the vehicle control (DMSO treated cells) to obtain percent survival/proliferation. Percent survival at different doses was used to calculate IC50 by fitting the curve to the “four-parameter variable slope logistic model” using Prism Graph Pad.
Background: Resazurin is reduced to fluorescent resorufin, in cell work by metabolically active cells.

Assay [2] relates to THP1. Nature of the assay: Cell viability assay (resazurin), THP1. It counts as cell-based. The note with it: Homo sapiens, THP-1; THP1 peripheral blood cells. As to the method:
as §1, §2

Assay [3] deals with HT-29. Nature of the assay: Cell viability assay (resazurin), HT-29. It counts as cell-based. The note with it: Homo sapiens; HT-29 colon cancer cells. As to the method: as §1, §2
Assay [4] has as its system AsPC-1. Nature of the assay: Cell viability assay (resazurin), AsPC-1. The assay is classed as cell-based. As to conditions: Homo sapiens, ASPC1; AsPC-1 pancreatic cancer cells. The method, then: as §1, §2
Assay [5] concerns MV-4-11. The assay is described as follows: Cell viability assay (resazurin), MV-4-11. The assay is classed as cell-based. As to conditions: Homo sapiens, MV4-11; MV-4-11 peripheral blood cells. As to the method: as §1, §2
Assay [6] deals with MDA_MB-231. The assay is described as follows: Cell viability assay (resazurin), MDA_MB-231. The assay is classed as cell-based. As to conditions: Homo sapiens, MDA-MB-231; MDA_MB-231 TNBC cells. As to the method:
as §1, §2

The target in assay [7] is CHK-1 kinase (Homo sapiens (Human), UniProt O14757). The assay is described as follows: CHK-1 Kinase Assay (Z-LYTE based TR-FRET). The assay is classed as biochemical. As to conditions: for inhibition at 1 µM: 1 μM compound, read-out: % Inhibition of CHK-1 enzyme activity @ 1 μM; for inhibition at 5 µM: 5 μM compound, read-out: % Inhibition of CHK-1 enzyme activity @ 5 μM. As to the method:
IC50 values of compounds for inhibition of CHK-1 kinase or percent inhibition at defined concentrations were determined by Z-LYTE™ based TR-FRET assay. Kinase reactions were performed in a 10 μL volume in low-volume 384-well plates. The concentration of substrate (Ser Thr 19) was maintained at 2 μM in the assay, and the kinase reaction buffer consisted of 50 mM HEPES pH 7.5, 0.01% BRIJ-35, 10 mM MgCl2, 1 mM EGTA, 2 mM DTT. Serially diluted compounds (3-fold) in DMSO (0.5% in final reaction) were incubated with cocktail of CHK-1 kinase (5 ng/ml; Cat #P3040, ThermoFisher), substrate Ser Thr 19, (2 μM; Cat #PV4529, ThermoFisher), ATP (53 μM; Cat #PV3227, ThermoFisher) and buffer. Kinase reactions were allowed to proceed for 1 hour at room temperature after which 5 μL of a 1:256 dilution of Development Reagent A was added. The plate was allowed to incubate at room temperature for 60 minutes before being read on a BMG Pherastar plate reader using the Z-LYTE™ filter block for Z-LYTE™ TR-FRET. The resulting TR-FRET emission ratio was used to calculate percent inhibition by normalizing with the control using the following formula: — [% Inhibition=1−{(% Phosphorylationsample/% Phosphorylationcontrol (0% Inhibition)}·100] For calculation of IC50, the percent inhibition obtained was plotted against the concentration of inhibitor, and the data was fit to a sigmoidal dose-response curve with a variable slope. The IC50 was calculated from the curve.
(In TR-FRET formats the signal depends on donor and acceptor labels being close together.)

In assay [8] the test system is A549. The assay is described as follows: Cell viability assay (resazurin), A549. The assay is classed as cell-based. The note with it: Homo sapiens; A549 lung epithelial carcinoma cells. The method, then:
as §1, §2

Assay [9] deals with HCT116. Nature of the assay: Cell viability assay (resazurin), HCT116. The assay is classed as cell-based. The note with it: Homo sapiens, HCT-116; HCT116 colorectal carcinoma cells. As to the method: as §1, §2
Assay [10] relates to Panc-10.05. Nature of the assay: Cell viability assay (resazurin), Panc-10.05. The note with it: Homo sapiens, Panc1005; Panc-10.05 cells. It counts as cell-based. As to the method:
as §1, §2

Assay [11] addresses CHK-2 kinase (Homo sapiens (Human), UniProt O96017). The assay is described as follows: CHK-2 Kinase Assay (Z-LYTE based TR-FRET). It counts as biochemical. As to conditions: for inhibition at 0.1 µM: 0.1 μM compound, read-out: % Inhibition of CHK-2 enzyme activity @ 0.1 μM; for inhibition at 1 µM: 1 μM compound, read-out: % Inhibition of CHK-2 enzyme activity @ 1 μM. The method, then: IC50 values of compounds for inhibition of CHK-2 kinase or percent inhibition at defined concentrations were determined by Z-LYTE™ based TR-FRET assay. Kinase reactions were performed in a 10 μL volume in low-volume 384-well plates. The concentration of substrate (Ser Thr 07) was maintained at 1 μM in the assay, and the kinase reaction buffer consisted of 50 mM HEPES pH 7.5, 0.01% BRIJ-35, 10 mM MgCl2, 1 mM EGTA. Serially diluted compounds (3-fold) in DMSO (0.5% in final reaction) were incubated with cocktail of CHK2 kinase (5 ng/ml; Cat #PV3367, ThermoFisher), substrate Ser Thr 07, (1 μM; Cat #PV3208, ThermoFisher), ATP (84 μM; Cat #PV3227, ThermoFisher) and buffer. Kinase reactions were allowed to proceed for 1 hour at room temperature after which 5 μL of a 1:45000 dilution of Development Reagent A was added. The plate was allowed to incubate at room temperature for 60 minutes before being read on a BMG Pherastar plate reader using the Z-LYTE™ filter block for Z-LYTE™ TR-FRET.
The resulting TR-FRET emission ratio was used to calculate percent inhibition by normalizing with the control using the following formula: — [% Inhibition=1−{(% Phosphorylationsample/% Phosphorylationcontrol (0% inhibition)}·100]
For calculation of IC50, the percent inhibition obtained was plotted against the concentration of inhibitor, and the data was fit to a sigmoidal dose-response curve with a variable slope. The IC50 was calculated from the curve.

The structures appear in SMILES notation.

CHK-1 kinase, sequence (O14757 whole entry): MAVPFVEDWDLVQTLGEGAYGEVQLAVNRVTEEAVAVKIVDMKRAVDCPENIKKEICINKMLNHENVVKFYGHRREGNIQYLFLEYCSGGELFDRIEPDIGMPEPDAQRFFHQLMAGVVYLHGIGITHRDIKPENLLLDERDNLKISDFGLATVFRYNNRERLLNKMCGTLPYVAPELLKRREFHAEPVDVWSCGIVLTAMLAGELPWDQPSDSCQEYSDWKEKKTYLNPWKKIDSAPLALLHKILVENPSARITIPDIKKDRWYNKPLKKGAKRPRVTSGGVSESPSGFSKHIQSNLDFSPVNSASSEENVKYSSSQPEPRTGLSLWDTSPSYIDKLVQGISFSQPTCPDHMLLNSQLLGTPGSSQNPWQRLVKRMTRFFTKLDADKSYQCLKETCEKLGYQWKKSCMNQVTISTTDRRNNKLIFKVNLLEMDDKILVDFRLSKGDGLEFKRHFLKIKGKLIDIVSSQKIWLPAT
CHK-2 kinase, sequence (O96017 whole entry): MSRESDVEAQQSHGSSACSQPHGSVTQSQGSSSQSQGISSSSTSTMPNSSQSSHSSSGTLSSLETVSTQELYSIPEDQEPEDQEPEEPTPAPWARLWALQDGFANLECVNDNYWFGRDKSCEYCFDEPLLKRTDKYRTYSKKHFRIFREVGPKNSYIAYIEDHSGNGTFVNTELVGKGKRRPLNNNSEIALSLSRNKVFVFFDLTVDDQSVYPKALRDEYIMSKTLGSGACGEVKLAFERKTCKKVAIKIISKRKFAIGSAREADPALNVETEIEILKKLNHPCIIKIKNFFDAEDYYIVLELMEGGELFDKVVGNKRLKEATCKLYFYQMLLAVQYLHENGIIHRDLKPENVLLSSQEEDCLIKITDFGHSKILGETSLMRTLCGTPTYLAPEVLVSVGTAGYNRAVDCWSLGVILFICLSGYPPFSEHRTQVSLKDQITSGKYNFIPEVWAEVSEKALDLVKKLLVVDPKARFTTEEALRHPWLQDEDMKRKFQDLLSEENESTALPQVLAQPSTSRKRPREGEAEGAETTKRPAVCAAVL

For `CNC(=O)c1nnc(Nc2cnc(C#N)cn2)cc1NC[C@@H]1CNCCO1` (stereo in doubt) [1.34, 6-(5-cyanopyrazin-2-ylamino)-N-methyl-4-(morpholin-2-ylmethylamino)pyridazine-3-carboxamide], the IC50 – broadly, the concentration that gives 50% inhibition – in assay [1] stood at 10.8 µM; in assay [2], 9.79 µM; in assay [3], 16.9 µM; in assay [4], 13.2 µM; in [5], 7 µM; in assay [6] it was 12.4 µM. Moreover, the IC50 in assay [8] was greater than 30 µM; in assay [9], 27.9 µM. For the same molecule, the inhibition (usually the change of the read-out against control, counted positive when it falls) at 0.1 µM in assay [7] (0.1 μM compound, read-out: % Inhibition of CHK-1 enzyme activity @ 0.1 μM) amounted to 77%. Besides, in assay [7], the inhibition at 1 µM was 96%. Moreover, the inhibition at 5 µM in assay [7] came out at 99%.
On to `N#Cc1cnc(Nc2cc(NCC3CNCCO3)c(C(N)=O)nn2)cn1` (stereo not shown) [1.2, 6-((5-cyanopyrazin-2-yl)amino)-4-((morpholin-2-ylmethyl)amino)pyridazine-3-carboxamide], for which the IC50 in [1] is greater than 30 µM; in [2], greater than 30 µM; in [3] it was greater than 30 µM; in [4], greater than 30 µM; in [6], greater than 30 µM; in assay [7], 0.07 µM. The IC50 in assay [8], in assay [10] and in assay [9] was greater than 30 µM in each case. In addition, the values for the inhibition at 1 µM in assay [7] and in [11] were 96% and 30%, respectively. In addition, the inhibition at 5 µM in assay [7] is 100%. Besides, the inhibition at 0.1 µM in assay [11] came out at 8.28%.
Consider `N#Cc1cnc(Nc2cc(NCC3CCNCC3)c(C(N)=O)nn2)cn1` [1.3, 6-((5-cyanopyrazin-2-yl)amino)-4-((piperidin-4-ylmethyl)amino)pyridazine-3-carboxamide], for which the IC50 was greater than 30 µM in assay [1]; greater than 30 µM in assay [2]; greater than 30 µM in assay [3]; greater than 30 µM in [4]; greater than 30 µM in assay [6]; 0.092 µM in [7]. In addition, the IC50 in assay [8], in assay [10] and in assay [9] was greater than 30 µM throughout. Also, the inhibition at 1 µM in [7] worked out at 93%; in [11] it was 36.7%. In [7], the inhibition at 5 µM was determined as 98%. Moreover, in assay [11], the inhibition at 0.1 µM was 12.1%.
